How the values were obtained:
[1] = system: AMPKα; assay: AMPK-activating action in C2C12 muscle cells, AMPKα phosphorylation (Western blot); assay type: cell-based, murine; details: for Phospho-AMPKα: 60 minutes, C2C12, relative value to control defined as 100
Method: (§1) A muscle cell line (C2C12) was used to evaluate the AMPK-activating action of nootkatone according to the procedures below with AMPKα and AMPKβ phosphorylation as indexes.
Cells of the murine muscle cell line (C2C12) were seeded onto a 25 cm^2 flask and cultured in DMEM (+10% FBS, +antimicrobial agent) at 37° C. for 1 to 2 days. When the cells became confluent, the culture solution was removed, and the cells were washed with PBS (−) and further cultured for 7 to 8 days in fresh DMEM (2% (V/V) horse serum), which was in turn replaced by a fresh culture solution every 2 to 3 days. The culture solution was then removed, and the cells were washed with PBS (−) and further cultured in fresh DMEM (−FBS) for 1 day. After the removal of the culture solution, the cells were cultured in DMEM (−FBS) containing a predetermined concentration of nootkatone (obtained from Wako Pure Chemical Industries, Ltd.) for 60 minutes. After the culture solution was subsequently removed and the cells were washed with PBS (−), 200 μL of cell lysis solution (10 mmol/L Tris (pH 7.4), 50 mmol/L sodium chloride, 30 mmol/L sodium pyrophosphate, 0.5% (V/V) Triton X-100, protease inhibitor cocktail (SIGMA P2714), phosphatase inhibitor cocktail-1 (SIGMA P2850), phosphatase inhibitor cocktail-2 (SIGMA P5726)) was added and the cell lysis solution was collected with a cell scraper. The collected cell lysis solution was well homogenized by passing it through a syringe with a 23G needle three times and then left on ice for 30 minutes. The homogenate was centrifuged at 15000 r/min at 4° C. for 15 minutes, and the resulting supernatant protein was used in the measurement below.
(§2) The concentration of the supernatant protein was measured, and the protein concentrations were then adjusted among samples to constant concentrations. […]
(§3) Predetermined amounts (approximately 20 to 40 μg) of the samples for electrophoresis were subjected to SDS-PAGE (12% gel) and transferred to a membrane. Then, phospho-AMPKα and phospho-AMPKβ were detected by using anti-phospho-AMPKα ([…]) antibodies (manufactured by Cell Signaling Technology, Inc.) or anti-phospho-AMPKβ (Ser108) antibodies (manufactured by Cell Signaling Technology, Inc.) as primary antibodies, anti-rabbit-HRP antibodies (manufactured by Amersham Biosciences) as secondary antibodies, and Phototope-HRP Western Detection System (manufactured by Cell Signaling Technology, Inc.) as a detection reagent. The degree of AMPK activation was indicated as a relative value to that of a control (sample-free group) defined as 100 by digitizing (pixelizing) detected band strength by image analysis (EDAS290 image analysis system; KODAK).

[2] = system: AMPKβ; assay: AMPK-activating action in C2C12 muscle cells, AMPKβ phosphorylation (Western blot); assay type: cell-based, murine; details: 60 minutes, relative value to control defined as 100
Method: as §1
Cells of the murine muscle cell line (C2C12) were seeded onto a 25 cm^2 flask and cultured in DMEM (+10% FBS, +antimicrobial agent) at 37° C. for 1 to 2 days. When the cells became confluent, the culture solution was removed, and the cells were washed with PBS (−) and further cultured for 7 to 8 days in fresh DMEM (2% (V/V) horse serum), which was in turn replaced by a fresh culture solution every 2 to 3 days. The culture solution was then removed, and the cells were washed with PBS (−) and further cultured in fresh DMEM (−FBS) for 1 day. After the removal of the culture solution, the cells were cultured in DMEM (−FBS) containing a predetermined concentration of nootkatone (obtained from Wako Pure Chemical Industries, Ltd.) for 60 minutes. […]
as §2, §3

[3] = Antiobesity, antidiabetic and antilifestyle-related disease effects in C57BL/6 mice raised on high-fat diet; assay type: in vivo
Method: The antiobesity, antidiabetic, and antilifestyle-related disease effects of nootkatone were evaluated as described below.
Seven-week-old C57BL/6 male mice were divided into 3 groups each containing 10 mice and raised with each diet of the composition described in Table 2.
Twenty-two weeks later, their body weights were measured, while blood was collected from the mice under ether anesthesia and under non-fasting conditions to measure serum glucose, cholesterol, triglyceride, insulin, and leptin levels. The amount of visceral fat (epididymal fat, retroperitoneal fat, and perirenal fat) was also measured.

[4] = system: lipid metabolism activity (β-oxidation activity); assay: Lipid metabolism activity (β-oxidation activity) of liver and skeletal muscle after oral administration; assay type: in vivo, mice
Method: Seven-week-old Balb/c male mice were divided into 2 groups, to which a physiological saline (control) or nootkatone at 200 mg/kg of body weight was then orally administered for 10 consecutive days. Then, their livers and skeletal muscles (gastrocnemius muscle+soleus muscle) were collected. The livers and skeletal muscles were respectively homogenized in a buffer (250 mM sucrose, 1 mM EDTA in 10 mM HEPES (pH 7.2)), and the insoluble tissue residues were removed by centrifugation to obtain supernatants. The obtained supernatants were measured for protein levels. The protein levels were adjusted among samples to constant levels, and the samples were used in the measurement of lipid metabolism activity (β-oxidation activity). A 100-μg aliquot of the supernatant protein was reacted at 37° C. for 20 minutes with 0.1 μCi [^14C]-palmitic acid in a buffer (50 mM Tris-HCl (pH 8.0), 40 mM NaCl, 2 mM KCl, 2 mM MgCl2, 1 mM DTT, 5 mM ATP, 0.2 mM L-carnitine, 0.2 mM NAD, 0.06 mM FAD, 0.12 mM CoA, 3 mM α-cyclodextrin) at the final volume of 200 μL. The reaction was terminated with 200 μL of 0.6 N perchloric acid, and the unreacted [^14C]-palmitic acid was removed 3 times with 1 mL hexane. Lipid-degrading activity was measured by measuring radioactivity of the aqueous layer.
The degree of the lipid-degrading activity was indicated as a relative value to that of the control defined as 100.

[5] = Endurance-enhancing and antifatigue effects, maximum swimming time of mice in a current water pool; assay type: in vivo; details: for Maximum swimming time: 7 L/min, Balb/c male mice
Method: The endurance-enhancing and antifatigue effects of nootkatone were evaluated as described below. Nootkatone used was a product of Avocado.
The endurance-enhancing and antifatigue effects were evaluated according to the measurement method of maximum swimming time of mice (Reference: Am J Physiol Regul Integr Comp Physiol, Vol. 288, R708-R715, 2005) in a current water pool. The experimental pool used was a clear acrylic pool (90 cm long×45 cm wide×45 cm deep) filled to a depth of 38 cm with water maintained at 34° C. with a heater. The current in the pool was generated with a pump (C-P60H, manufactured by Hitachi), and the current speed was adjusted by connecting Water flowmeter (Tofco) to the pump and opening and closing a valve. The current speed was measured with a digital current meter (SV-101-25S, Sankou Seimitsu Kogyo).
Experimental animals used were 5-week-old Balb/c male mice (Charles River Laboratories, Inc.). The mice were preliminarily raised for 1 week under a constant raising environment (23±2° C., light period: 7 a.m. to 7 p.m.) and acclimated. In subsequent 1-week training, the mice were accustomed to swimming exercise three times a week (subjected to swimming exercise for 30 minutes at a current speed of 5 L/min on the first day, and for 30 minutes at a current speed of 6 L/min on the third and fifth days). […] The mice were divided into 2 groups, a test diet group and a control diet group, each containing 8 mice, to prevent a difference in maximum swimming time between the groups. Diets prepared in the formulation composition shown in Table 8 were used to raise the mice for 10 weeks. During this period, the measurement of maximum swimming time (7 L/min) and training (6 L/min, 30 minutes) were performed once every week.

[6] = Group 3 (0.5% nootkatone), 22 weeks
[7] = Group 3: high-fat diet with 0.5% nootkatone, 22 weeks, C57BL/6 male mice
[8] = serum, non-fasting, Group 3: high-fat diet with 0.5% nootkatone, 22 weeks

Compound: C=C(C)[C@@H]1CCC2=CC(=O)C[C@@H](C)[C@]2(C)C1 (stereo in doubt) [Nootkatone, 4,4a,5,6,7,8-hexahydro-6-isopropenyl-4,4a-dimethyl-2(3H)-naphthalenone]
- AMPK-activating action in the muscle cells ([1]; C2C12, summary of Table 1): strong AMPK-activating action
- Phospho-AMPKα ([1]; nootkatone 50 μmol/L): 402
- Phospho-AMPKα ([1]; nootkatone 100 μmol/L): 952
- Phospho-AMPKα ([1]; nootkatone 150 μmol/L): 1077
- Phospho-AMPKβ ([2]; nootkatone 50 μmol/L): 241
- Phospho-AMPKβ ([2]; nootkatone 100 μmol/L): 314
- Phospho-AMPKβ ([2]; nootkatone 150 μmol/L): 358
- Increment of body weights and amount of visceral fat ([3]; Group 3 (0.5% nootkatone) as compared with Group 2): remarkably reduced
- Effect on rise in blood cholesterol level [3, 6]: excellent inhibitory effect
- Effect on rise in blood insulin level [3, 6]: excellent inhibitory effect
- Effect on rise in blood leptin level [3, 6]: excellent inhibitory effect
- Effect on rise in blood triglyceride level [3, 6]: excellent inhibitory effect
- Effect on rise in blood-glucose level [3, 6]: excellent inhibitory effect
- Body weight [3, 7]: 30.4 g
- Epididymal fat [3, 7]: 0.47 g
- Perirenal fat [3, 7]: 0.07 g
- Retroperitoneal fat [3, 7]: 0.15 g
- Glucose [3, 8]: 212.3 mg/dL
- Insulin [3, 8]: 1.26 ng/mL
- Leptin [3, 8]: 6.2 ng/mL
- Total cholesterol [3, 8]: 131.3 mg/dL
- Triglyceride [3, 8]: 54.3 mg/dL
- Lipid-degrading activity (β-oxidation activity), skeletal muscle ([4]; 200 mg/kg orally for 10 consecutive days, Balb/c male mice, gastrocnemius + soleus muscle, relative value to control defined as 100): 271
- Lipid-degrading activity (β-oxidation activity), liver ([4]; 200 mg/kg orally for 10 consecutive days, Balb/c male mice, relative value to control defined as 100): 273
- Lipid-degrading activity (β-oxidation activity) of the liver and skeletal muscle ([4]; mice given nootkatone 200 mg/kg, 10 days, versus control): remarkably increased
- Maximum swimming time ([5]; after 10 week raising on test diet with 0.2% nootkatone): 40.01 ± 3.17 min
- Maximum swimming time ([5]; before raising (baseline of test diet group)): 27.31 ± 1.72 min
- Maximum swimming time after 10-week raising ([5]; test diet containing nootkatone as compared with the control diet group): significantly prolonged

Source: US20070054965A1, “AMPK activating agent” (Kao Corporation, priority 2005, published 2007)
